pEC50: −log10 of the molar value.
Legend:
rat EP2 receptor = molecular target: T1, rat EP2 receptor (Rattus norvegicus, UniProt Q62928); test: Measurement of EP2 agonist activity (intracellular cyclic AMP concentration, cAMP assay); format: cell-based; conditions: rEP2-CHO cell, maximum = PGE2 (1 μmol/l)
T1 construct: expressed in transfected cells; host or cells: CHO cells (rEP2-CHO)
Protocol: (1-1) Measurement of EP2 Agonist Activity (Measurement of Intracellular Cyclic AMP (cAMP) Concentration (cAMP Assay))
(§1) A rat EP2 receptor forced expression cell (rEP2-CHO cell) was incubated in an incubator (5% CO2) of 37° C. using Minimum Essential Medium Eagle (Sigma, M4526) to which 10% fetal bovine serum (FBS, JRH) and 1/100 total volume of Penicillin Streptomycin Glutamine (GIBCO, 10378-016) had been added. The cells which reached confluent were exfoliated using trypsin and suspended in a medium (MEM medium containing 10% FBS) to a density of 2.0×10^5 cells per ml. The thus prepared suspension was seeded into a 24 well plate to be 1.0×10^5 cells per well portions and incubated for 48 hours. […]
The frozen sample was thawed and transferred to a micro centrifugation tube to be centrifuged (15,000 rpm, 4° C., 3 minutes). […] Using the upper layer as a sample, cAMP concentration was measured by a cAMP EIA system (cAMP Enzyme Immunoassay System, Amersham Biosciences).
Activity strengths of respective compounds were compared by calculating their EC50 values. The EC50 value was calculated by regarding changed amount of the cAMP concentration when PGE2 (1 μmol/l) was added instead of each compound as the maximum changed amount, and defining the value which gives half of the changed amount as the concentration of each compound.

rat EP3 receptor = molecular target: T2, rat EP3 receptor (Rattus norvegicus, UniProt P34980); test: Measurement of EP3 agonist activity (intracellular calcium concentration real time imaging, Ca2+ assay); format: cell-based; conditions: rEP3-CHO cell, maximum = PGE2 (100 nmol/L)
T2 construct: expressed in transfected cells; host or cells: CHO cells (rEP3-CHO)
T2 sequence (P34980 1-365): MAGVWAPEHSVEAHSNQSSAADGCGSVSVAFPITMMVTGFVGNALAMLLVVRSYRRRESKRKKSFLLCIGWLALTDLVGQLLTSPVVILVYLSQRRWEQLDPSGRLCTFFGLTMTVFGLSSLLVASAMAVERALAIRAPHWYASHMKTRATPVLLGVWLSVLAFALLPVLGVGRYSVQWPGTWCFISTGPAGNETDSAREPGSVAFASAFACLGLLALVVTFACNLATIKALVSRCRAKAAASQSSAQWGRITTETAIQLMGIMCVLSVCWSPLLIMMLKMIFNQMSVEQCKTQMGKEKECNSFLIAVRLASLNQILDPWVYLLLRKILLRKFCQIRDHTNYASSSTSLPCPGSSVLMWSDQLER
Protocol: (1-2) Measurement of EP3 Agonist Activity (Intracellular Calcium Concentration Real Time Imaging (Ca^2+ Assay))
as §1, with “EP3” for “EP2”, “(rEP3-CHO” for “(rEP2-CHO”, “1/100 of” for “1/100”, “1.0×10^5” for “2.0×10^5”, “ml.” for “ml. The thus prepared suspension was seeded into a 24 well plate to be 1.0×10^5 cells per well portions and incubated for 48 hours.”
After the incubation, the culture fluid was removed from each well of the plate and a Fura2 loading buffer (10% FBS-containing MEM medium supplemented with Fura2-AM (5 μmol/L), HEPES (10 mmol/L), probenecid (2.5 mmol/L) and indometacin (20 μmol/L)) was added thereto, followed by incubating in an incubator (5% CO2) of 37° C. […] Measurement of the fluorescence intensity was continuously carried out for 3 minutes after addition of the compound.
Activity intensity of each compound was compared by calculating their EC50 values. The EC50 value was calculated by regarding mean of the changed amount of calcium concentration when PGE2 (100 nmol/L) was added instead of each compound as the maximum changed amount, and defining the value which gives half of the changed amount as the concentration of each compound. […]

cauda equina nerve = test: Measurement of cauda equina nerve repair acceleration activity (rat cauda equina nerve compression gait disturbance model); format: in vivo; conditions: intravenous continuous administration 2 hours×twice/day, 2 weeks, in comparison with the physiological saline administration group
Protocol: (2) Measurement of Cauda Equina Nerve Repair Acceleration Activity
A rat cauda equina nerve compression gait disturbance model was prepared by the method of Takenobu et al. (J. Neurosci. Methods, 104 (2), 191-198, 2002). Namely, a rat was anesthetized with pentobarbital sodium and, after shaving its dorsal region, fixed at abdominal position. After disinfection of the dorsal region with chlorhexidine gluconate (5% hibitane liquid; Sumitomo Pharmaceuticals), the waist was median-incised to expose the spinal column. After excision of the fifth lumbar gemmule, a silicon rubber of 1×4×1.25 mm (height×length×width) was inserted into the fourth lumbar and sixth lumbar spinal canals from a small hole on the vertebral arch bored by a mini drill. For the purpose of avoiding infections, benzylpenicillin potassium (Crystalline Penicillin G Potassium Meiji; Meiji Seika Kaisha, Ltd.) was added dropwise to the incised part and intramuscularly injected into the thigh parts. The muscle and skin of the incised part were stitched with a surgical suture, and Iodine Tincture was applied to the stitched part. Animals of the sham operation group were prepared in accordance with the aforementioned method, but the insertion of silicon rubber was not carried out. […]

rat = test: Measurement of the cauda equina blood flow and the blood pressure; format: in vivo; conditions: urethane-anesthetized rat, continuous infusion through caudal vein for 30 minutes
Protocol: (3) The Measurement of the Cauda Equina Blood Flow and the Blood Pressure
1.5 g/kg of urethane was administered intraperitoneally to the rat to be anesthetized, and the catheter (for measurement of blood pressure and ventricular rate) was placed in left carotid artery in supine position. The rat was reversed to prone position and the lumbar part was incised in the median line. The laminectomy was given to the fifth lumbar vertebra and the spinal cord (cauda equina) was exposed. The cauda equina blood flow was measured by the laser-Doppler flowmetry (OMEGAFLD FLO-NI and ADVANCE LASER FLOWMETER ALF21N, OMEGA WAVE Inc.) through a noncontact probe (ST-N type, OMEGA WAVE Inc.) and recorded with LINEARCORDER (Graphtech). The systemic blood pressure and the ventricular rate were measured from a left carotid artery with amplifier for the pressure measurement (GOULD) through a pressure transducer and recorded with LINEARCORDER (Graphtech). After confirming each parameter of blood pressure, ventricular rate and blood flow was stabilized, the test compound was administrated by continuous infusion through the winged needle placed in caudal vein for 30 minutes. It observed until 30 minutes after the administration and the increase rate of the cauda equina blood flow was calculated.
The increase rate of the cauda equina blood flow (%)=(B−A)/A×100 […]

T1 sequence (Q62928 whole entry): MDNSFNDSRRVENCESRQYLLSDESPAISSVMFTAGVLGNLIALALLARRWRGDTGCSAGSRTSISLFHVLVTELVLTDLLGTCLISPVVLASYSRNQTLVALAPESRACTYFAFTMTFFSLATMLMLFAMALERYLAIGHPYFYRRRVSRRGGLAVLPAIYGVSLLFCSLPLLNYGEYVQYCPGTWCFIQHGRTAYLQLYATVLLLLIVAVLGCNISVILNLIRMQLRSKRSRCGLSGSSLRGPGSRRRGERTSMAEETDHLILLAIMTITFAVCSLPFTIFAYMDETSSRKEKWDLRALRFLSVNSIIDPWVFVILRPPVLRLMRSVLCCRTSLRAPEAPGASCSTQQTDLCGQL

Row | SMILES | pEC50 (rat EP2 receptor) | pEC50 (rat EP3 receptor) | appearance rate of regeneration nerve fascicles (cauda equina nerve) | decrease of the blood pressure (rat; left carotid artery) [mmHg] | increase rate of the cauda equina blood flow (rat; observed until 30 minutes after) [%]
1 | O=C(O)c1csc(SCCN2C(=O)OC[C@@H]2/C=C/[C@@H](O)C2(CCCCF)CCC2)n1 [compound A, 2-{[2-((4S)-4-{(1E,3R)-3-[1-(4-fluorobutyl)cyclobutyl]-3-hydroxy-1-propenyl}-2-oxo-1,3-oxazolidin-3-yl)ethyl]sulfanyl}-1,3-thiazole-4-carboxylic acid] | 7.80 | 7.00 | significantly high appearance rate of regeneration nerve fascicles |  | 
2 | C[C@@](O)(C/C=C/[C@H]1CCC(=O)[C@@H]1CCSc1nc(C(=O)O)cs1)CC1CCCCC1 [compound 17, 2-[(2-{(1R,2R)-2-[(1E,4S)-5-cyclohexyl-4-hydroxy-4-methyl-1-penten-1-yl]-5-oxocyclopentyl}ethyl)thio]-1,3-thiazole-4-carboxylic acid] | 7.96 | 7.51 |  | 5 | 33

— patent US8404858B2, “Agent for regeneration and/or protection of nerves” (Ono Pharmaceutical Co., Ltd., priority 2005, dated 2013)
